Experimental data as given in article PMC6357742, “Porphyromonas gingivalis in Alzheimer’s disease brains: Evidence for disease causation and treatment with small-molecule inhibitors” (Science Advances, 2019).

Tests used:
FVIIa = target: T1, FVIIa (Homo sapiens, UniProt P08709); assay: Cellular protease profiling; type: biochemical
T1 sequence (P08709 213-466 limits assumed): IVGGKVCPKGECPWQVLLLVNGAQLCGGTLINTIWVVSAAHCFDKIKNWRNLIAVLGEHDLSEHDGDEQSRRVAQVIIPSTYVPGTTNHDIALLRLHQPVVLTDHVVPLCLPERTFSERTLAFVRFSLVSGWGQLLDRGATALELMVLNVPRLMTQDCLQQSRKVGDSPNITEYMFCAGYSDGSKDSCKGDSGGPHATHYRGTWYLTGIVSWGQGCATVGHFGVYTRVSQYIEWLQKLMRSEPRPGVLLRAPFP
T1 sequence (P08709 61-212 partner limits assumed): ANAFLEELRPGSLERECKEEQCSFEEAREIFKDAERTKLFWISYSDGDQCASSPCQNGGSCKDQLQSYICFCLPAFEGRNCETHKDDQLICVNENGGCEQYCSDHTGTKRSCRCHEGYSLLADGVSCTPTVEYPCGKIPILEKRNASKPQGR

thrombin = thrombin (Homo sapiens, UniProt P00734); assay: Cellular protease profiling; type: biochemical
DPP4 = DPP4 (Homo sapiens, UniProt P27487); assay: Cellular protease profiling; type: biochemical
caspase family enzymes = assay: Cellular protease profiling; type: biochemical
[1] = Oral pharmacokinetic properties and CNS penetration; details: in vivo
[2] = system: deubiquitinating peptidases; assay: Cellular protease profiling; type: biochemical
P. gingivalis [3] = assay: Kgp-dependent growth of P. gingivalis in defined medium; type: cell-based; details: 500 nM, over 43 hours
calpain = assay: Cellular protease profiling; type: biochemical
FXa = FXa (Homo sapiens, UniProt P00742); assay: Cellular protease profiling; type: biochemical
Kgp [4] = target: Kgp (Porphyromonas gingivalis, UniProt Q51817); type: binding, P. gingivalis
Kgp [5] = target: T2, Kgp (Porphyromonas gingivalis, UniProt B2RLK2); type: binding, P. gingivalis; details: human oral subgingival plaque, preincubation with COR388
cathepsin S = cathepsin S (Homo sapiens, UniProt P25774); assay: Cellular protease profiling; type: biochemical
BACE1 = BACE1 (Homo sapiens, UniProt P56817); assay: Cellular protease profiling; type: biochemical
proteasome = assay: Cellular protease profiling; type: biochemical
P. gingivalis W83 = assay: P. gingivalis oral infection in mice, Experiment 3 (brain qPCR, Aβ1–42 and TNFα ELISA); type: in vivo, BALB/c mice; details: days 36 to 70
plasmin = plasmin (Homo sapiens, UniProt P00747); assay: Cellular protease profiling; type: biochemical
tryptase = assay: Cellular protease profiling; type: biochemical
Kgp [6] = target: T2, Kgp; type: biochemical, P. gingivalis; details: recovery of enzyme activity following dilution of enzyme/inhibitor complexes
P. gingivalis [7] = type: cell-based
[8] = system: SH-SY5Y cells infected with P. gingivalis W83; assay: AlamarBlue viability of SH-SY5Y cells challenged with P. gingivalis; type: cell-based, human; details: W83 strain, MOI of 400, 48 hours
[9] = system: differentiated SH-SY5Y cells exposed to RgpB and Kgp; assay: Gingipain-induced aggregation of differentiated SH-SY5Y cells; type: cell-based, human; details: pretreatment of gingipains; RgpB and Kgp 10 μg/ml, 24 hours
P. gingivalis [10] = assay: Antimicrobial effects of Aβ on P. gingivalis (LIVE/DEAD BacLight); type: cell-based; parameters: dose or concentration left out as unconfirmed; details: 37°C, anaerobic, 24 hours
[11] = 10 and 30 mg/kg oral twice daily

Question: With `NCCCC[C@H](NC(=O)C1CCCC1)C(=O)COc1c(F)ccc(F)c1F` [COR388] as the molecule, how does the IC50 (FVIIa) read?
Answer: > 10 µM

Question: And the IC50 (thrombin)?
Answer: > 10 µM

Question: And the IC50 (DPP4)?
Answer: > 10 µM

Question: What about the IC50 (caspase family enzymes) of the same molecule?
Answer: > 10 µM

Question: What about the CNS penetration [1] of the same molecule?
Answer: significant CNS penetration

Question: What about the “oral bioavailability / oral pharmacokinetics” value ([1]; po) of the same molecule?
Answer: superior oral pharmacokinetic

Question: And the IC50 [2]?
Answer: > 10 µM

Question: And the “growth of P. gingivalis in defined growth medium” value (P. gingivalis [3])?
Answer: inhibited the growth

Question: What about the IC50 (calpain) of the same molecule?
Answer: > 10 µM

Question: What about the IC50 (FXa) of the same molecule?
Answer: > 10 µM

Question: And the “Kgp target engagement (COR553 probe binding after preincubation)” value (Kgp [4])?
Answer: block of COR553 activity probe binding

Question: What about the “Kgp target engagement ex vivo (COR553 probe binding after preincubation)” value (Kgp [5]) of the same molecule?
Answer: blocked probe binding to the active site

Question: And the IC50 (cathepsin S)?
Answer: > 10 µM

Question: What about the IC50 (BACE1) of the same molecule?
Answer: > 10 µM

Question: What about the IC50 (proteasome) of the same molecule?
Answer: > 10 µM

Question: What about the “Aβ1–42 level in brain tissue” value (P. gingivalis W83; 3 mg/kg oral twice daily) of the same molecule?
Answer: did not reduce

Question: And the “P. gingivalis load in brain tissue” value (P. gingivalis W83; 3 mg/kg oral twice daily)?
Answer: some reduction

Question: What about the “TNFα level in brain tissue” value (P. gingivalis W83; 3 mg/kg oral twice daily) of the same molecule?
Answer: did not reduce

Question: And the “Aβ1–42 level in brain tissue compared to infected vehicle” value (P. gingivalis W83; [11])?
Answer: reduced

Question: And the “P. gingivalis load in brain tissue compared to infected vehicle” value (P. gingivalis W83; [11])?
Answer: reduced

Question: And the “TNFα level in brain tissue compared to infected vehicle” value (P. gingivalis W83; [11])?
Answer: reduced

Question: What about the IC50 (plasmin) of the same molecule?
Answer: > 10 µM

Question: And the IC50 (tryptase)?
Answer: > 10 µM

Question: What about the mode of inhibition (Kgp [6]) of the same molecule?
Answer: irreversible binding kinetics

Question: And the “development of resistance on repeat passaging” value (P. gingivalis [7])?
Answer: did not develop

Question: With `C[C@H]1c2cccc(O)c2C(=O)C2=C(O)[C@]3(O)C(=O)C(C(N)=O)=C(O)[C@@H](N(C)C)[C@@H]3[C@@H](O)[C@@H]21` [doxycycline] as the molecule, how does the “protection against P. gingivalis–induced cell death” value [8] read?
Answer: did not protect the cells

Question: With `NC(=O)CI` [iodoacetamide] as the molecule, how does the gingipain-induced cell aggregation [9] read?
Answer: prevented gingipain-induced aggregation

Question: What does the source list for `COc1c(N2C[C@@H]3CCCN[C@@H]3C2)c(F)cc2c(=O)c(C(=O)O)cn(C3CC3)c12` [moxifloxacin]?
Answer: protection against P. gingivalis–induced cell death [8]: did not protect the cells; development of resistance on repeat passaging (P. gingivalis [7]): complete resistance; increase of minimum inhibitory concentration (MIC) on passaging (P. gingivalis [7]; 12 passages): over 1000 fold

Question: With `CC(C)[C@H](O)C(=O)N[C@@H](C)C(=O)N[C@@H]1C(=O)N(C)CCc2ccccc21` [semagacestat] as the molecule, how does the “protection against P. gingivalis–induced cell death” value [8] read?
Answer: no protective effect

Question: For “Aβ1–42: Recombinant Aβ (1-42) Ultra-Pure, Ammonium Hydroxide (rProtein)”, which “viability of P. gingivalis” value (P. gingivalis [10]) is on record?
Answer: decreased viability
